Experimental data published in patent US20220257725A1, “COMPOSITIONS AND METHODS FOR TREATING PEROXISOMAL BIOGENESIS DISORDERS” (University of Utah Research Foundation, priority 2019, published 2022).
Each block holds one molecule with its values, some of them ahead of it.

B2: yeast Pex13-V5 (expressed by its endogenous promotor) (other, yeast (S. cerevisiae), UniProt P80667 1-386, looked up)
chain: MSSTAVPRPKPWETSASLEEPQRNAQSLSAMMTSNQQDSRPTEESNNSNSASESAPEVLPRPAALNSSGTYGESNTIPGIYGNSNYGIPYDNNPYSMNSIYGNSIGRYGYGGSYYGNNYGSFYGGGYGAGAGYGMNNGSGLGESTKATFQLIESLIGAVTGFAQMLESTYMATHNSFFTMISVAEQFGNLKEMLGSFFGIFAIMKFLKKILYRATKGRLGIPPKNFAESEGSKNKLIEDFQKFNDSGTINSNEKATRRKISWKPLLFFLMAVFGFPYLLNKFITKLQTSGTIRASQGNGSEPIDPSKLEFARALYDFVPENPEMEVALKKGDLMAILSKKDPLGRDSDWWKVRTKNGNIGYIPYNYIEIIKRRKKIEHVDDETRTH
notes: not shown: V5 tag

What was measured:
[1] = tested on: PEX3 deficient (PEX3−) fibroblast cell line derived from a patient with Zellweger Syndrome; experiment: Live cell fluorescent imaging of peroxin-GFP localization with ATAD1 overexpression; format: cell-based, human
[2] = tested on: PEX3− patient fibroblasts; experiment: Electron microscopy of mitochondrial morphology; format: cell-based, human
Experimental: Representative images of the most observed mitochondrial morphology are shown. […] OCR (pmol/min/norm.unit) for cWT (wild-type), cWT+ATAD1 (wild-type expressing ATAD1) PEX3− (patient), PEX3−+ATAD1 (PEX3− expressing ATAD1), cWT-ATAD1 (wildtype with ATAD1 deletion), PEX3−ATAD1 (patient with ATAD1 deletion) cells plotted against time (XF96e Extracellular Flux Analyzer, Mito-Stress-Test.) Oligomycin A (1 μM), 0.15 μM FCCP and 1 μM rotenone+1 μM antimycin A (final concentrations) were sequentially delivered to the XF96e assay medium through injection ports in the sensor cartridge. n=2 (4+4=8 technical replicates). […] Statistical significance (Welch's test), p values are indicated as: ns (not significant), * p≤0.05, ** p≤0.01, *** p≤0.001, **** p≤0.0001. […] Statistical significance (Welch's test), p values are indicated as: ns (not significant), * p≤0.05, ** p≤0.01, *** p≤0.001, **** p≤0.0001. FIG. 5E show a bar graph representation of calculated respiratory spare capacity (=uncoupled respiration minus basal respiration) of cWT (wild-type), cWT+ATAD1 (wild-type expressing ATAD1) PEX3− (patient), PEX3−+ATAD1 (PEX3− expressing ATAD1), cWT-ATAD1 (wildtype with ATAD1 deletion), PEX3−ATAD1 (patient with ATAD1 deletion). Statistical significance (Welch's test), p values are indicated as: ns (not significant), * p≤0.05, ** p≤0.01, *** p≤0.001, **** p≤0.0001. […]

[3] = tested on: PEX3− patient fibroblasts; experiment: Seahorse XF 96e Flux analyzer respiration (Mito-Stress-Test); format: cell-based, human
Experimental: (§1) Representative images of the most observed mitochondrial morphology are shown. […] OCR (pmol/min/norm.unit) for cWT (wild-type), cWT+ATAD1 (wild-type expressing ATAD1) PEX3− (patient), PEX3−+ATAD1 (PEX3− expressing ATAD1), cWT-ATAD1 (wildtype with ATAD1 deletion), PEX3−ATAD1 (patient with ATAD1 deletion) cells plotted against time (XF96e Extracellular Flux Analyzer, Mito-Stress-Test.) Oligomycin A (1 μM), 0.15 μM FCCP and 1 μM rotenone+1 μM antimycin A (final concentrations) were sequentially delivered to the XF96e assay medium through injection ports in the sensor cartridge. n=2 (4+4=8 technical replicates). […] Statistical significance (Welch's test), p values are indicated as: ns (not significant), * p≤0.05, ** p≤0.01, *** p≤0.001, **** p≤0.0001. […] Statistical significance (Welch's test), p values are indicated as: ns (not significant), * p≤0.05, ** p≤0.01, *** p≤0.001, **** p≤0.0001. FIG. 5E show a bar graph representation of calculated respiratory spare capacity (=uncoupled respiration minus basal respiration) of cWT (wild-type), cWT+ATAD1 (wild-type expressing ATAD1) PEX3− (patient), PEX3−+ATAD1 (PEX3− expressing ATAD1), cWT-ATAD1 (wildtype with ATAD1 deletion), PEX3−ATAD1 (patient with ATAD1 deletion). Statistical significance (Welch's test), p values are indicated as: ns (not significant), * p≤0.05, ** p≤0.01, *** p≤0.001, **** p≤0.0001.
Therefore, it was tested whether removal of the accumulated peroxins is able to restore mitochondrial respiration. To test the direct dependence of this phenotype with the expression levels of ATAD1, additional cell lines with genetic deletion of ATAD1 was generated. A Seahorse XF 96e Flux analyzer was used to measure respiration (FIG. 5B). A significant lower basal rate of respiration in the PEX3^− cell line was observed compared to the complemented wild-type cWT (FIGS. 5B, 5C). […] In the case that the expression level of ATAD1 is sufficient to cause the phenotype, it would be expected that a much more severe phenotype in the patient with an additional ATAD1 deletion. […]

[4] = tested on: PEX3− patient fibroblasts; experiment: Unbiased whole cell lipidomics; format: cell-based, human; settings: patient cell line with overexpression of ATAD1
Experimental: as §1
To complement the characterization with other readouts relevant to reflect important mitochondrial function, unbiased whole cell lipidomics was performed. […] Another readout of flourishing mitochondrial metabolism is the capacity of mitochondria to import […] phosphatidylserines (PSs) into phosphatidylethanolamines (PEs). […] The class of phospho-ether lipids (plasmalogens), precursors to myelin, seems to be unaffected (FIG. 5H).

[5] = molecular target: B2; experiment: BN-PAGE of digitonin-solubilised yeast mitochondrial membranes with complexome profiling (co-migration)
Experimental: Gel was transferred to PVDF membrane and immunoblotted for PEX13^V5 (V5). […] Left panel represents the protein abundance in the wild-type, middle panel in pex19Δ and the right panel in pex19Δmsp1Δ.
Some peroxisomal matrix proteins were detected that have never been reported to be localized to the mitochondria before (FIG. 2 and FIG. 3A (summary cartoon)). Therefore, it was tested whether the enrichment of peroxins on mitochondria is a random accumulation or a structured event.

yeast Pex25 = molecular target: T1, yeast Pex25 (yeast (S. cerevisiae), UniProt Q02969 1-394); experiment: BN-PAGE of digitonin-solubilised yeast mitochondrial membranes with complexome profiling (co-migration in a 150-180 kDa subcomplex)
T1 sequence (looked up): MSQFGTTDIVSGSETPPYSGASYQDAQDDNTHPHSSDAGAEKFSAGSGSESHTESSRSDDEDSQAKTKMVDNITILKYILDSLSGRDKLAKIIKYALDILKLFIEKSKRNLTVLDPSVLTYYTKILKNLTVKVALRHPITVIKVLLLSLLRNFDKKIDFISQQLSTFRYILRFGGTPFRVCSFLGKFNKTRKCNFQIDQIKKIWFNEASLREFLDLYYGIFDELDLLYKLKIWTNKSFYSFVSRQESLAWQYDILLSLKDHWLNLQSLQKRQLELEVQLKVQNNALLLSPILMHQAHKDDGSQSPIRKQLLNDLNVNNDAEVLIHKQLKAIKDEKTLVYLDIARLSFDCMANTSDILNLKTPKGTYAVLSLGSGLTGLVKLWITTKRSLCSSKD

[6] = molecular target: B2; experiment: as above

Molecule: ATAD1: human AAA-ATPase acting in mitochondrial protein quality control; overexpressed in patient fibroblasts
PEX13-GFP localization ([1]; PEX3−ATAD+ cells (ATAD1 overexpressed), Mitotracker far red counterstain): not stabilized in the mitochondrial outer membrane | PEX12-GFP distribution ([1]; PEX12-GFP transiently expressed, ATAD1 overexpressing patient cell line, compared with PEX13-GFP result): very similar distribution with a slightly milder effect | Share accounted as type 3 (mitochondria with fewer cristae) ([2]; PEX3−ATAD+ cells, patient >80% type 2, wild-type about 80% types 1 and 3): about 70% | Mitochondrial morphology (electron density, cristae) ([2]; patient cell line overexpressing ATAD1, electron microscopy): electron density recovers and cristae formation is partially detected | Mitochondrial spare capacity (uncoupled minus basal respiration) ([3]; PEX3−ATAD+): recovered the mitochondrial spare capacity | Uncoupled respiration ([3]; PEX3−ATAD+ versus cWT, FCCP 0.15 μM): normalized to wild-type respiration | Basal mitochondrial respiration ([3]; PEX3−ATAD+ versus cWT, OCR): restored back to wild-type level | Cardiolipin levels [4]: normalizes to wild-type levels | Phosphatidylethanolamine (PE) levels [4]: slightly higher values than in wild-type | Phospho-ether lipids (plasmalogens) [4]: unaffected

Molecule: B2
binding result (yeast Pex25): binds

Second part, the molecule after the results:

binding result [5]: binds
B1: yeast Pex14 (other, yeast (S. cerevisiae), UniProt P53112 2-341, looked up)
chain: SDVVSKDRKALFDSAVSFLKDESIKDAPLLKKIEFLKSKGLTEKEIEIAMKEPKKDGIVGDEVSKKIGSTENRASQDMYLYEAMPPTLPHRDWKDYFVMATATAGLLYGAYEVTRRYVIPNILPEAKSKLEGDKKEIDDQFSKIDTVLNAIEAEQAEFRKKESETLKELSDTIAELKQALVQTTRSREKIEDEFRIVKLEVVNMQNTIDKFVSDNDGMQELNNIQKEMESLKSLMNNRMESGNAQDNRLFSISPNGIPGIDTIPSASEILAKMGMQEESDKEKENGSDANKDDNAVPAWKKAREQTIDSNASIPEWQKNTAANEISVPDWQNGQVEDSIP

binding result [6]: binds
B3: yeast Pex11 (other, yeast (S. cerevisiae), UniProt Q12462 2-236, looked up)
chain: VCDTLVYHPSVTRFVKFLDGSAGREKVLRLLQYLARFLAVQNSSLLARQLQAQFTTVRKFLRFLKPLNHLQAAAKFYDNKLASDNVVRVCNVLKNIFFAAYLSLDQVNLLRILKVIPVTVLTGKKIPRWSNWCWLFGLLSGLAMDLRKIQTSHAQIAAFVKAKSQSQGDEHEDHKKVLGKAYQDRYTALRRLFWDAADSFIVLNNLGYLSSNEEYVALSGVVTSILGMQDMWKAT
